The results in this text go back to US20050222402A1, “Dna encoding rat bombesin receptor subtype-3 (brs-3) and uses thereof” (priority 2001, published 2005).

Non-standard residues stand in square brackets, D forms with d. Residues, ends and D or L forms follow the SMILES beside them. Nle = CCCC[C@H](N)C(=O)O; βAla = NCCC(=O)O

The target in one test is T1, mouse BRS-3 (Mus musculus, UniProt O54798, S28P/V27A).
T1 construct: expressed in transfected cells; host or cells: same expression system as rat BRS-3 (pE3 / 293EBNA)
T1 sequence (O54798 1-399 V27A/S28P): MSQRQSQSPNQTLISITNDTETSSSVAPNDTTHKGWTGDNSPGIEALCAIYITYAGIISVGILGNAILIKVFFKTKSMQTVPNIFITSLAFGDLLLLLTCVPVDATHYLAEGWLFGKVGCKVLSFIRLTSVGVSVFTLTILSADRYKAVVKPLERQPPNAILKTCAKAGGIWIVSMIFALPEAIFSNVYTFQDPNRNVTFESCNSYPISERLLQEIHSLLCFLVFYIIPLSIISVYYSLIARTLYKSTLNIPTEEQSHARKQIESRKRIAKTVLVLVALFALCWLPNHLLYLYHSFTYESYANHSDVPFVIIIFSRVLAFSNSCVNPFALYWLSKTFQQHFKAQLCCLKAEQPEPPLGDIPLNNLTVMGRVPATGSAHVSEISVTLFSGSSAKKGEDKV
Nature of the test: Calcium mobilization assay (FLIPR), same expression system. In kind it is cell-based. The note with it: data not shown.

The next test addresses T2, RBB3-E3 (Rattus norvegicus, UniProt Q8K418, A302V/D306A/E299Q/E303D/P308H/S300T/V307M/V310I/V311F/Y298S).
T2 construct: expressed in transfected cells; host or cells: 293EBNA cells, pE3 expression vector
T2 sequence (Q8K418 1-399 Y298S/E299Q/S300T/A302V/E303D/D306A/V307M/P308H/V310I/V311F): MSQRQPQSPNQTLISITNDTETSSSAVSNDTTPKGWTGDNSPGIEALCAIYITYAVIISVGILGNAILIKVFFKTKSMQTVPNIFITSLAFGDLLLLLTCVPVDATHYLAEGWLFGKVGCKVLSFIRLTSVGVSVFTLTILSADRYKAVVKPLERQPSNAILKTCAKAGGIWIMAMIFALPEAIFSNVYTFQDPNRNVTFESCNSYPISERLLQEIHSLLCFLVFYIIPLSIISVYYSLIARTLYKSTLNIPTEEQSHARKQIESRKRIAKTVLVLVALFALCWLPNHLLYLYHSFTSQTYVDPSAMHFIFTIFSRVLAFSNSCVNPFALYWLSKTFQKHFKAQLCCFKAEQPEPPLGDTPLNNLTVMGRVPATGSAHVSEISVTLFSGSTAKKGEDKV
Nature of the test: Radioligand binding assay with 125I-dYB. Also on record: species or system rat/human. To be noted: displacement of [125I]dYB by unlabeled dYB. The procedure:
After removal of cell nuclei by a low speed centrifugation (1000×g) step, the cell membrane proteins were collected by centrifugation at 35,000×g for 20 minutes. The membrane protein concentration was determined by the Bradford method using BSA as standard.
After a 2 hr incubation at room temperature, the binding reaction was terminated by filtering through a GF/c filter-mate and washing the filter with binding buffer using Packard 96-well Topcount Harvester. The amount of radioligand bound to the receptor was determined by measurement of the radioactivity on the filter through liquid scintillation counting. The non-specific binding was defined as the binding in the presence of 1 uM unlabeled dYB.
A general note: Displacement assays read how much labelled ligand stays bound in the presence of the test substance.

A further test addresses T3, Rat BRS-3/E3 (RB3-E3) (Rattus norvegicus, UniProt Q8K418, A302V/D306A/E299Q/E303D/P308H/S300T/V307M/V310I/V311F/Y298S).
T3 construct: expressed in transfected cells; host or cells: 293EBNA cells, pE3 expression vector
T3 sequence (Q8K418 1-399 Y298S/E299Q/S300T/A302V/E303D/D306A/V307M/P308H/V310I/V311F): T2 sequence (Q8K418 1-399 Y298S/E299Q/S300T/A302V/E303D/D306A/V307M/P308H/V310I/V311F)
Nature of the test: Calcium mobilization assay (FLIPR), chimeric receptor. In kind it is cell-based, rat/human. The source says: (§1) Chimeric rat/human BRS-3 genes and substitution mutant rat BRS-3 genes were constructed by using PCR mutagenesis techniques (Fong, T. in Structure-function analysis of G protein coupled receptors, J, Wess, ed, Wiley-Liss, pp. 1-20, (1999)). All the mutant and wild type BRS-3 genes were cloned into pE3 expression vector which contains CMV early promoter, hygromycin-resistance gene and OriP segment from Epstein-Bar virus.
(§2) The functional activity of rat BRS-3 was also studied by measuring the agonist-induced calcium mobilization response using a Fluorescence Imaging Plate Reader (Molecular Devices, Sunnyvale, Calif.). Transfected 293EBNA cells were plated onto poly-D-lysine coated 96-well plates with black wall and clear bottom (Becton Dickinson, Franklin Lakes, N.J.). After 16-48 hr culture, the cells were loaded with 4 uM Fluo-3-AM fluorescent calcium-indicator dye (Molecular Probes, Eugene, OR) in assay buffer (Hank's balanced salts solution, 10 mM HEPES, pH7.4, 0.1% bovine serum albumin, 2.5 mM probenecid).
(§3) The changes in intracellular calcium concentration, as indicated by Fluo-3 fluorescence, were immediately measured by FLIPR. Maximal changes in fluorescence over base line were used to determine agonist response. […]
(§4) The EC50 values were mean±S.E. calculated from dose-response curves of 3-5 repeated experiments using FLIPR assays.
In general terms: Calcium assays in cells follow changes in intracellular calcium, usually with a dye or a luminescent sensor.

A further test concerns the target T4, Rat BRS-3/E2 (RB3-E2) (Rattus norvegicus, UniProt Q8K418, E210K/I208V/N204T/Q192R/R196K/R211K/V198M).
T4 construct: expressed in transfected cells; host or cells: 293EBNA cells, pE3 expression vector
T4 sequence (Q8K418 1-399 Q192R/R196K/V198M/N204T/I208V/E210K/R211K): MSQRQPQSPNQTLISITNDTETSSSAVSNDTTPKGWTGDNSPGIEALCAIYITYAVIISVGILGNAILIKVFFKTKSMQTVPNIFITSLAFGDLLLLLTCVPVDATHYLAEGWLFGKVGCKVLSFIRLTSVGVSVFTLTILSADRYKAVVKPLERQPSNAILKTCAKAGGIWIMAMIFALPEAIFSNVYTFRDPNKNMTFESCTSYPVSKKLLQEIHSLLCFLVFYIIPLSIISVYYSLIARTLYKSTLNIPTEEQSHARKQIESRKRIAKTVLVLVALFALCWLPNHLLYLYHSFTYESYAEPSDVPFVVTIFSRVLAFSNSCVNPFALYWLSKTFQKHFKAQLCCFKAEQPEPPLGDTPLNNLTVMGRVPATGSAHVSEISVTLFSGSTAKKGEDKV
The description is as above. Type of test: cell-based, rat/human.
Source text: as §1, §2, §3, §4

A word on the EC50: it is the concentration that produces a half-maximal response. Regarding `CCCC[C@H](NC(=O)[C@H](Cc1ccccc1)NC(=O)[C@H](Cc1c[nH]cn1)NC(=O)CCNC(=O)[C@@H](NC(=O)[C@H](C)NC(=O)[C@H](Cc1c[nH]c2ccccc12)NC(=O)[C@H](CCC(N)=O)NC(=O)[C@H](N)Cc1ccc(O)cc1)C(C)C)C(N)=O` [dYB, [D-Tyr6-betaAla11-Phe13-Nle14] bombesin (6-14)] (H-[dY]QWAV[βAla]HF[Nle]-NH2), on mouse BRS-3, the EC50 entry is reported as “in the uM range”.

One may read the Ki as the dissociation constant of the complex between target and ligand, obtained from inhibition or displacement. A low value points to a stronger hold on the target. As to `CCCC[C@H](NC(=O)[C@H](Cc1ccccc1)NC(=O)[C@H](Cc1cnc[nH]1)NC(=O)CCNC(=O)[C@@H](NC(=O)[C@H](C)NC(=O)[C@H](Cc1c[nH]c2ccccc12)NC(=O)[C@H](CCC(N)=O)NC(=O)[C@H](N)Cc1ccc(O)cc1)C(C)C)C(N)=O` [dYB, [D-Tyr6-betaAla11-Phe13-Nle14] bombesin (6-14)] (H-[dY]QWAV[βAla]HF[Nle]-NH2), affinity on RBB3-E3 was put at a Ki of 1.2 ± 0.7 nM. The concentration for a half-maximal effect (EC50) was determined as 2.8 ± 0.6 nM at Rat BRS-3/E3 (RB3-E3) and 990 ± 140 nM at Rat BRS-3/E2 (RB3-E2).
